The record followed here is ChEMBL document CHEMBL1147725, “Identification and biological characterization of 6-aryl-7-isopropylquinazolinones as novel TRPV1 antagonists that are effective in models of chronic pain” (J Med Chem, 2006).

The assay addresses Transient receptor potential cation channel subfamily V member 1 (Homo sapiens, UniProt Q8NER1). The assay is described as follows: Inhibition of calcium influx evoked by capsaicin in human TRPV1 expressing cells by fluorescence assay. The format is functional.

Chain of Transient receptor potential cation channel subfamily V member 1 (Q8NER1 whole entry): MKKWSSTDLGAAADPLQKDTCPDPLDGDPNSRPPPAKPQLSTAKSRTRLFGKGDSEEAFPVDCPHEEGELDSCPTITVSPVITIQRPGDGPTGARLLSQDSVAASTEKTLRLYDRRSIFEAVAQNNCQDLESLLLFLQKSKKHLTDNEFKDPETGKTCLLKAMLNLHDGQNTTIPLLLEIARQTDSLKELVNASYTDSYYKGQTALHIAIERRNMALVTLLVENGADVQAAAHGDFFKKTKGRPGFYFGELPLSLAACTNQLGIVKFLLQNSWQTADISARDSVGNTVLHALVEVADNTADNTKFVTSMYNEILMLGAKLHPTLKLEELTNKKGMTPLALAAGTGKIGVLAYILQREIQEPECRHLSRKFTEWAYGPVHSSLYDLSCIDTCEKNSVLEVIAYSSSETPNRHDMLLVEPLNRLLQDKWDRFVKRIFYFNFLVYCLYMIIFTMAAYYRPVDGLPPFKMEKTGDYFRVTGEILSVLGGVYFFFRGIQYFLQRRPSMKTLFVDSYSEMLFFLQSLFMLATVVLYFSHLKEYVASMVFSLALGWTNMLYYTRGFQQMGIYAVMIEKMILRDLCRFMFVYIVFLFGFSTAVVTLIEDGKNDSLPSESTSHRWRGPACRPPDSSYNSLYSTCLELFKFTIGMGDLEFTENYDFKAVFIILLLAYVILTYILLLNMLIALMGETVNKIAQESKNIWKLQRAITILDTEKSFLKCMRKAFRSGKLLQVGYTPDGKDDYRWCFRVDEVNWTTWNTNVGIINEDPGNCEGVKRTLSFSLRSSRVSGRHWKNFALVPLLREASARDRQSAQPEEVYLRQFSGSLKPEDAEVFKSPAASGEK

As for `CCOc1cc(-c2cc3c(=O)[nH]c(C)nc3cc2C(C)C)ccc1Cl`, the IC50 came to 12 nM. In the case of `CCCOc1cc(-c2cc3c(=O)[nH]c(C)nc3cc2C(C)C)ccc1Cl` it was 40 nM; in that of `Cc1nc(O)c2cc(-c3ccc(Cl)c(OCC(=O)O)c3)c(C(C)C)cc2n1`, > 1000 nM.
